Test results published in patent publication US20030083334A1, “Synergistic insecticidal formulations of pyridaben and strobilurins” (priority 2000, published 2003).

Assays:
cotton aphid = test: Greenhouse trial, number of apterous aphids (AA) per cotton plant; type: in vivo, Aphis gossypil; conditions: for # of AA 6 DAT / # of AA 16 DAT: apterous aphids per plant; for # of AA 6 DAT: untreated 290; for # of AA 16 DAT: untreated 750
Method: (§1) A greenhouse trial was conducted to determine the insecticidal effects against the cotton aphid (Aphis gossypil). In this regard, cotton plants infected with the cotton aphid were sprayed in a growth chamber and placed in a greenhouse. Counts were made on apterous forms at 6 and 16 days after treatment (DAT), with the data appearing in Tables 1A and 1 B below.
Example 1 was repeated and the number of apterous aphids (AA) per plant at 6 and 16 DAT were noted. The data appear in Table 4 below versus a conventional insecticide, imidacloprid (Provado® insecticide commercially available from Bayer Corp.).

[1] = tested on: cotton aphid (Aphis gossypil); test: Greenhouse trial, cotton plants infected with cotton aphid, sprayed; % control; type: in vivo
Method: as §1

[2] = tested on: green peach aphids (Myzus persicae); test: Greenhouse trial, celosia infected with green peach aphids; % control; type: in vivo
Method: as §1
Example 1 was repeated except using celosia infected with green peach aphids (Myzus persicae) and using the application rates noted.

[3] = tested on: twospotted spider mites (Tetranychus urticae); test: Greenhouse trial, dracaena infected with twospotted spider mites; % control; type: in vivo
Method: as §1
Example 1 was repeated except using dracaena infected with twospotted spider mites (Tetranychus urticae) and using the application rates noted.

SMILES	# of AA 6 DAT (cotton aphid; 5 ppm ai)	# of AA 16 DAT (cotton aphid; 5 ppm ai)	# of AA 6 DAT (cotton aphid; 10 ppm ai)	# of AA 16 DAT (cotton aphid; 10 ppm ai)	# of AA 6 DAT (cotton aphid; 50 ppm ai)	# of AA 16 DAT (cotton aphid; 50 ppm ai)	# of AA 6 DAT (cotton aphid; 100 ppm ai)	# of AA 16 DAT (cotton aphid; 100 ppm ai)	% Cotton Aphid Control 6 DAT ([1]; 5 ppm)	% Cotton Aphid Control 16 DAT ([1]; 5 ppm)	% Cotton Aphid Control 6 DAT ([1]; 10 ppm)	% Cotton Aphid Control 16 DAT ([1]; 10 ppm)	% Cotton Aphid Control 6 DAT ([1]; 50 ppm)	% Cotton Aphid Control 16 DAT ([1]; 50 ppm)	% Cotton Aphid Control 6 DAT ([1]; 100 ppm)	% Cotton Aphid Control 16 DAT ([1]; 100 ppm)	further results
CC(C)(C)c1ccc(CSc2cnn(C(C)(C)C)c(=O)c2Cl)cc1 [BAS 300, 2-tert-butyl-5-(4-tert-butylbenzylthio)-4-chloropyridazin-3(2H)-one]	76	233	72	222	16	15	7	7	73.8%	68.9%	75.2%	70.4%	94.5%	98%	97.6%	99.1%	activity against the cotton aphid (cotton aphid; 6 DAT, application rate of 5 ppm ai): moderate activity; # of AA 6 DAT (cotton aphid; 200 ppm ai): 1; # of AA 16 DAT (cotton aphid; 200 ppm ai): 4; # of AA 6 DAT (cotton aphid; 300 ppm ai): 2; # of AA 16 DAT (cotton aphid; 300 ppm ai): 2; intrinsic activity against the cotton aphid (cotton aphid; in vivo): excellent intrinsic activity; % Green Peach Aphid Control ([2]; 0.9 lb ai/100 gal, 2 DAT): 0%; % Green Peach Aphid Control ([2]; 0.9 lb ai/100 gal, 4 DAT): 47%; % Green Peach Aphid Control ([2]; 0.9 lb ai/100 gal, 6 DAT): 77%; % Green Peach Aphid Control ([2]; 0.9 lb ai/100 gal, 10 DAT): 97%; % Green Peach Aphid Control ([2]; 0.9 lb ai/100 gal, 14 DAT): 95%; % Twospotted Spider Mite Control ([3]; 2 oz formulated product/100 gal, 7 DAT): 80%; % Twospotted Spider Mite Control ([3]; 2 oz formulated product/100 gal, 14 DAT): 91%
CO/N=C(/C(=O)OC)c1ccccc1COc1ccccc1C [BAS 490, methyl-(E)-2-methoxyimino-2-[2-o-tolyoxy-methyl)phenyl] acetate]	258	650	290	643	298	717	316	550	11%	13.3%	0%	14.3%	0%	4.4%	0%	26.6%	effectiveness alone against the cotton aphid (cotton aphid; alone, at all rates): ineffective alone; % Green Peach Aphid Control ([2]; 0.1 lb ai/100 gal, 2 DAT): 0%; % Green Peach Aphid Control ([2]; 0.1 lb ai/100 gal, 4 DAT): 14%; % Green Peach Aphid Control ([2]; 0.1 lb ai/100 gal, 6 DAT): 5%; % Green Peach Aphid Control ([2]; 0.1 lb ai/100 gal, 10 DAT): 10%; % Green Peach Aphid Control ([2]; 0.1 lb ai/100 gal, 14 DAT): 5%; % Twospotted Spider Mite Control ([3]; 3.2 oz formulated product/100 gal, 7 DAT): 16%; % Twospotted Spider Mite Control ([3]; 3.2 oz formulated product/100 gal, 14 DAT): 28%
